# Results as given in ChEMBL document CHEMBL5465560, “Selectivity Literature for EUbOPEN Chemogenomic Library” (2024).
# Tests used:
# [1] = biological target: T1, Serine/threonine-protein kinase TBK1 (Homo sapiens) (UniProt Q9UHD2); settings: at 10 µM
# T1 sequence (whole entry): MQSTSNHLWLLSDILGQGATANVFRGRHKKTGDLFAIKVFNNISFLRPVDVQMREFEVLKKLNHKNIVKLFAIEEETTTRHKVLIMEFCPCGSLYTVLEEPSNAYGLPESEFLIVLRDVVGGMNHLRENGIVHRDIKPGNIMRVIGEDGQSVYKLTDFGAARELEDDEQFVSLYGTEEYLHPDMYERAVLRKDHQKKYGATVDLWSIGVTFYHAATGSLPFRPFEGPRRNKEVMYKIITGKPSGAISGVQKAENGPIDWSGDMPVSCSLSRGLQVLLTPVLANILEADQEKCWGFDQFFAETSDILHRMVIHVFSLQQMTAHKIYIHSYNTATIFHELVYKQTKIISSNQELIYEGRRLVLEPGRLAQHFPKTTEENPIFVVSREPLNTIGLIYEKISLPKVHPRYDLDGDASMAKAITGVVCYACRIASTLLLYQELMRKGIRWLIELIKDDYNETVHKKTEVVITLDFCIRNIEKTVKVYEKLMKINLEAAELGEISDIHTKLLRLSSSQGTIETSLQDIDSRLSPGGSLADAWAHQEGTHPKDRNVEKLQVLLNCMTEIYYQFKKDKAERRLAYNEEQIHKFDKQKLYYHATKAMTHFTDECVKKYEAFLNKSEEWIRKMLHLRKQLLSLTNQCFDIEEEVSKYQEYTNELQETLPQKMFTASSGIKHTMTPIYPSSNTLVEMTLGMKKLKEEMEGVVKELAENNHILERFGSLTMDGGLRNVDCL
# [2] = biological target: T2, Serine/threonine-protein kinase BRSK2 (Homo sapiens) (UniProt Q8IWQ3); test: Selectivity interaction (Kinase screening (Nanosyn)) EUB0000604a BRSK2
# T2 sequence (whole entry): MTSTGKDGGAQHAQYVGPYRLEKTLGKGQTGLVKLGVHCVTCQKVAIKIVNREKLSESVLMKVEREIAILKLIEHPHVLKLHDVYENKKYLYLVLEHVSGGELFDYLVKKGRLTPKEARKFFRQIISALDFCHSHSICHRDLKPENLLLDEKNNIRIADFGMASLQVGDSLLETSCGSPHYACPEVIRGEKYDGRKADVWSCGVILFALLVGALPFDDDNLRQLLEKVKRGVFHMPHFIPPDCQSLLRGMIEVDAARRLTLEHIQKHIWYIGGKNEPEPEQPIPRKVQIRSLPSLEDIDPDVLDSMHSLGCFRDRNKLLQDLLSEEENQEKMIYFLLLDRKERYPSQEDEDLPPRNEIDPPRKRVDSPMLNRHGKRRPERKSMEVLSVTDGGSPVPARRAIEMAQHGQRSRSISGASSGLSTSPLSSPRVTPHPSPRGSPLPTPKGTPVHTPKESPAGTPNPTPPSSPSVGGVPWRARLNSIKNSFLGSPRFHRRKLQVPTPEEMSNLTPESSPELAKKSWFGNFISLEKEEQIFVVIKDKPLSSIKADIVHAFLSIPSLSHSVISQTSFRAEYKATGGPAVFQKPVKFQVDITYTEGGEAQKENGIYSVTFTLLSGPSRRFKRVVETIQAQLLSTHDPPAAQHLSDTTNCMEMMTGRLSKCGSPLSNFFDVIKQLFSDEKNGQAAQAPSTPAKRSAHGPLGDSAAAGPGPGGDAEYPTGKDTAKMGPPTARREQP
# [3] = biological target: Receptor tyrosine-protein kinase erbB-4 (Homo sapiens, UniProt Q15303); test: Selectivity interaction (KinomeScan (DiscoverX)) EUB0001049a ERBB4; settings: at 1 µM
# [4] = biological target: Cyclin-dependent kinase 7 (Homo sapiens, UniProt P50613); test: Selectivity interaction (ActivX KiNativ screen (kinase selectivity in THP-1 cell lysates)) EUB0000639a CDK7; assay type: subcellular; settings: lysate
# [5] = biological target: Maternal embryonic leucine zipper kinase (Homo sapiens) (UniProt Q14680); settings: at 10 µM
# [6] = biological target: Ephrin type-A receptor 2 (Homo sapiens) (UniProt P29317); test: Selectivity interaction (ProQinase) EUB0000171b EPHA2
# [7] = biological target: T3, Inhibitor of nuclear factor kappa-B kinase subunit alpha (Homo sapiens) (UniProt O15111); test: Selectivity interaction (KinomeScan (DiscoverX)) EUB0000092b CHUK; settings: at 10 µM
# T3 sequence (whole entry): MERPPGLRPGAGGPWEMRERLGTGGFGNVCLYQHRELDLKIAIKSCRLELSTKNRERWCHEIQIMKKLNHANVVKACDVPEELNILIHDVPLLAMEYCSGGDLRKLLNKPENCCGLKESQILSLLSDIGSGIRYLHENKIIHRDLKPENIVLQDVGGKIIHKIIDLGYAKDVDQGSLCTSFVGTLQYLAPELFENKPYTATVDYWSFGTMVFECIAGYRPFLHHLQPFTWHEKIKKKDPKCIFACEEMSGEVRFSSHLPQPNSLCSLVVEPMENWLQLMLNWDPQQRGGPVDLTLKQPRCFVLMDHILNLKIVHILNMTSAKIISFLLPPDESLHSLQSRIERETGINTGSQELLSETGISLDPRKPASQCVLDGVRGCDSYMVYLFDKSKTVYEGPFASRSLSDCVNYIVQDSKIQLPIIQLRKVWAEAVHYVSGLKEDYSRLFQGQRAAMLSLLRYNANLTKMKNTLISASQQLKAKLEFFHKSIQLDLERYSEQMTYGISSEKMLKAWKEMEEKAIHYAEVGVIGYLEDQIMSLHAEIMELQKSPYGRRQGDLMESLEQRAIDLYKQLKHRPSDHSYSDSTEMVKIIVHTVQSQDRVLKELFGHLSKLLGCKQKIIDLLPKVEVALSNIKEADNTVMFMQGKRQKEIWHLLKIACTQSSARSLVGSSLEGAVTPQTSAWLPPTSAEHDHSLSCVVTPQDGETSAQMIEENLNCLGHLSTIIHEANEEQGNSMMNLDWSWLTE
# [8] = biological target: Tyrosine-protein kinase Fer (Homo sapiens) (UniProt P16591); test: Selectivity interaction (Upstate Kinase Profiler service (Millipore)) EUB0000056c FER; settings: at 1 µM
# [9] = biological target: Protein kinase C theta type (Homo sapiens, UniProt Q04759); test: Selectivity interaction (KinomeScan (DiscoverX)) EUB0000655a PRKCQ; settings: at 10 µM
# [10] = biological target: Mitogen-activated protein kinase 14 (Homo sapiens, UniProt Q16539); test: Selectivity interaction (ActivX KiNativ screen (ex vivo kinase selectivity in human PBMCs)) EUB0001619a MAPK14; assay type: cell-based; settings: PBMC, at 1 µM
# [11] = biological target: Fibroblast growth factor receptor 4 (Homo sapiens, UniProt P22455); test: Selectivity interaction (KinomeScan (DiscoverX)) EUB0001619a FGFR4; settings: at 1 µM
# [12] = biological target: RAC-alpha serine/threonine-protein kinase (Homo sapiens, UniProt P31749); test: Selectivity interaction (KinomeScan (DiscoverX)) EUB0000666a AKT1; settings: at 10 µM
# Chain of RAC-alpha serine/threonine-protein kinase (P31749 whole entry): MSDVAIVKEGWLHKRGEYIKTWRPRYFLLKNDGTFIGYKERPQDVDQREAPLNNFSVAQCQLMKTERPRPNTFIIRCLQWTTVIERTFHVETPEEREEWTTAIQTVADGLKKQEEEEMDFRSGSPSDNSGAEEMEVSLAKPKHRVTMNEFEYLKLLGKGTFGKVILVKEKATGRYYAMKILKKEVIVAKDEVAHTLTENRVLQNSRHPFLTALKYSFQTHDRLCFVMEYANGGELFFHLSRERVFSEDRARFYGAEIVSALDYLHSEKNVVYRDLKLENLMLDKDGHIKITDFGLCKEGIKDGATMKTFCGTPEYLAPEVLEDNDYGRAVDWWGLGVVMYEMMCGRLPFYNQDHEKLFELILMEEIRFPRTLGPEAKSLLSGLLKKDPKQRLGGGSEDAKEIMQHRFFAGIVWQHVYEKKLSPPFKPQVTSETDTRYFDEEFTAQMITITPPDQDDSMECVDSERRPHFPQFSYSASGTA
# Chain of Cyclin-dependent kinase 7 (P50613 whole entry): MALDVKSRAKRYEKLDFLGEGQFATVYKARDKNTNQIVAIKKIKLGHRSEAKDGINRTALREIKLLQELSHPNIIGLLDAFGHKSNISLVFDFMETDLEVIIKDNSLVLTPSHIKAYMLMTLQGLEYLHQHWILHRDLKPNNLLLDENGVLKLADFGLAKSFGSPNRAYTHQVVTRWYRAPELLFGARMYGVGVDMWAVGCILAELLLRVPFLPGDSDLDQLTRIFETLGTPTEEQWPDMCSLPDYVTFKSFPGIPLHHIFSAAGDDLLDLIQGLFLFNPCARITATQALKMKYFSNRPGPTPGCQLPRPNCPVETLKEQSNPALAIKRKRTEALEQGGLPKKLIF
# Chain of Ephrin type-A receptor 2 (Homo sapiens) (P29317 whole entry): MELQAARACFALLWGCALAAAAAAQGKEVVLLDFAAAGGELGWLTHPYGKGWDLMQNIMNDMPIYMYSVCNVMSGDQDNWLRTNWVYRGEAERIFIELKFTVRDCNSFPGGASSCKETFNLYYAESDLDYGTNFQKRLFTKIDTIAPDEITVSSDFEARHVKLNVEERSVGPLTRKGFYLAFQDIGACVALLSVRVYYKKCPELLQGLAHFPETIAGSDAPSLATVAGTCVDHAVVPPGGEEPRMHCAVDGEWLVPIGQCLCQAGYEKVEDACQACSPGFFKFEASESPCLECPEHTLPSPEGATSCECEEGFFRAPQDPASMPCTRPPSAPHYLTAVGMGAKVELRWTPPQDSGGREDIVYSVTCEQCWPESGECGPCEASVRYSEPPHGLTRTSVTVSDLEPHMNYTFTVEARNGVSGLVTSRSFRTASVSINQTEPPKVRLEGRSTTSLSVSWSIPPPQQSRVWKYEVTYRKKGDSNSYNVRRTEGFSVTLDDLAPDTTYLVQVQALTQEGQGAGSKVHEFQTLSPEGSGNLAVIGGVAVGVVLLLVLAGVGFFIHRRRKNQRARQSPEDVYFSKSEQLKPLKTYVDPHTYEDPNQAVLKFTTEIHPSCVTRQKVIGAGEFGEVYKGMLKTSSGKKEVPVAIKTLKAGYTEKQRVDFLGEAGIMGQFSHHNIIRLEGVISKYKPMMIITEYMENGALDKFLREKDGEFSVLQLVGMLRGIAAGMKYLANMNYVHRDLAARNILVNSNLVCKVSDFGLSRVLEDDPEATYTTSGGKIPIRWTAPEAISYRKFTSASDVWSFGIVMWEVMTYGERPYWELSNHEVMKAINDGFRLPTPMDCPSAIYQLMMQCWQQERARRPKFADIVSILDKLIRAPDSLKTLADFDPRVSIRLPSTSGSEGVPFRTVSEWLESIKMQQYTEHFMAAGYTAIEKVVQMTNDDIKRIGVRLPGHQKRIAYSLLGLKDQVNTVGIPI
# Chain of Receptor tyrosine-protein kinase erbB-4 (Q15303 whole entry): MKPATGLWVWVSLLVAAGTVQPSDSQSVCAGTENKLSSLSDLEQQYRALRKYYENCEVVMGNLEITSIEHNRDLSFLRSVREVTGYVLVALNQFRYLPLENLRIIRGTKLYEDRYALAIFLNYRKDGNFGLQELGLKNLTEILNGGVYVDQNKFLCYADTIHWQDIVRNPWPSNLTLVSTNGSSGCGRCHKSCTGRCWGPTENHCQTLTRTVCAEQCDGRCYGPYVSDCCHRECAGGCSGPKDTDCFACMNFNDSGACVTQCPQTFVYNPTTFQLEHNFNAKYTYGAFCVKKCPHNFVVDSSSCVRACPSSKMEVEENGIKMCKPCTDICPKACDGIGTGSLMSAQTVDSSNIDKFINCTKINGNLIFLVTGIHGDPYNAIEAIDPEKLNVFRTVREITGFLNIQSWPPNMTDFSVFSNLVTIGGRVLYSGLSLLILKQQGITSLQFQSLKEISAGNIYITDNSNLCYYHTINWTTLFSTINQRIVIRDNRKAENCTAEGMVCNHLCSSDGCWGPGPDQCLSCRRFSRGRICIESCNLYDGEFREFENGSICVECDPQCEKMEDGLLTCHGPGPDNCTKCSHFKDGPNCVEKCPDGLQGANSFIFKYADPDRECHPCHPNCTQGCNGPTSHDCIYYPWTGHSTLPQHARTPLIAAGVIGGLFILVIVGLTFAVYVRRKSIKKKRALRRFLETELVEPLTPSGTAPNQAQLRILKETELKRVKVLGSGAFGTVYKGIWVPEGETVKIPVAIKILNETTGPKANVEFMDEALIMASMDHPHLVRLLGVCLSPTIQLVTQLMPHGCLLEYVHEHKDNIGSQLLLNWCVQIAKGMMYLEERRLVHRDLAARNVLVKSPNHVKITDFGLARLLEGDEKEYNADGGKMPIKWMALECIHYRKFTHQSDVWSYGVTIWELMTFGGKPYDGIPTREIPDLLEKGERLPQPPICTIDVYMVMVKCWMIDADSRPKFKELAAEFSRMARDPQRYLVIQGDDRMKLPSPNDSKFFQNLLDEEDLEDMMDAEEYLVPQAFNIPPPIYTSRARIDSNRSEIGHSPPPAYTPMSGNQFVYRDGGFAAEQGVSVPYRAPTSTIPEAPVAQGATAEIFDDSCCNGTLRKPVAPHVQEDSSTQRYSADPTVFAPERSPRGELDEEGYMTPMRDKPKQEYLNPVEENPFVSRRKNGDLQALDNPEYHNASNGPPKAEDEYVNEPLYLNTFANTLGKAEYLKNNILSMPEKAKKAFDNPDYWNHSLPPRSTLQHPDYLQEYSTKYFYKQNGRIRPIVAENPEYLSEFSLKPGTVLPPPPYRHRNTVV
# Chain of Protein kinase C theta type (Q04759 whole entry, looked up): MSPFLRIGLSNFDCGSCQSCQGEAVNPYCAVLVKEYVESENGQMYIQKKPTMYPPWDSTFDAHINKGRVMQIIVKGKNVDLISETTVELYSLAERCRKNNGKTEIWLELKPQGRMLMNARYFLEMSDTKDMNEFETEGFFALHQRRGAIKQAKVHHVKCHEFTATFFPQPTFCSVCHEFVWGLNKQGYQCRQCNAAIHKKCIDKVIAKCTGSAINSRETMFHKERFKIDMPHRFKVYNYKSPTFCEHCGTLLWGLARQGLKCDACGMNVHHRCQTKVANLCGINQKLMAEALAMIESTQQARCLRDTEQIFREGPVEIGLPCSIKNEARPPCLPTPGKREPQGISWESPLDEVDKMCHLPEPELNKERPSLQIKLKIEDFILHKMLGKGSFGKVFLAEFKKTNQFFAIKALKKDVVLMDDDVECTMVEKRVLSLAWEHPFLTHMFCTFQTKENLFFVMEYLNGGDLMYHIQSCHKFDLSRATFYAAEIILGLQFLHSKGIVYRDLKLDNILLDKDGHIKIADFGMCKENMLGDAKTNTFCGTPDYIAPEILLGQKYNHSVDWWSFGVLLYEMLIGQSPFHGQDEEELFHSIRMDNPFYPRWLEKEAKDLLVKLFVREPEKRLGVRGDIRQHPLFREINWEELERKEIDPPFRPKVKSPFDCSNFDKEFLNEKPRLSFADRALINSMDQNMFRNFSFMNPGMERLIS
# Chain of Tyrosine-protein kinase Fer (Homo sapiens) (P16591 whole entry, looked up): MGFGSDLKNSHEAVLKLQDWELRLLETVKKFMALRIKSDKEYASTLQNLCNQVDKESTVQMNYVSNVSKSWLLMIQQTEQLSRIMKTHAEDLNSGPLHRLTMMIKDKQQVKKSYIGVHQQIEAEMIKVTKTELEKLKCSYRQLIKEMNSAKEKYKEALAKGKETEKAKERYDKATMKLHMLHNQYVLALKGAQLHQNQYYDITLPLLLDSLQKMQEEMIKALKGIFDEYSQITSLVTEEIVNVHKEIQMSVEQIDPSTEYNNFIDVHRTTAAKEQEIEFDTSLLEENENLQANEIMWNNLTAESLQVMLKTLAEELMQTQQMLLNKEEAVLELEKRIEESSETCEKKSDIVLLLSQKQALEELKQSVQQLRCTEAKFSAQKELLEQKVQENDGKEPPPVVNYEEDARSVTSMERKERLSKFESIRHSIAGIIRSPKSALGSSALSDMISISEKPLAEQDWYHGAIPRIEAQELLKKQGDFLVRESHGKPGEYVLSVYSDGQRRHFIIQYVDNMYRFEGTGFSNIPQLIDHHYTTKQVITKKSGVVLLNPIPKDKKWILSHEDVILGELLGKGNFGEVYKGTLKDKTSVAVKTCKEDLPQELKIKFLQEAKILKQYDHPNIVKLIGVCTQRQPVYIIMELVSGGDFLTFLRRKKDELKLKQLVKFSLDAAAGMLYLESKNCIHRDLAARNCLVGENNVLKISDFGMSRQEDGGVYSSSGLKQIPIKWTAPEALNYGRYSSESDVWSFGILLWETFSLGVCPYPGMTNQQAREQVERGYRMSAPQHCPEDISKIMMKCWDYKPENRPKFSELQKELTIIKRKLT
# Chain of Mitogen-activated protein kinase 14 (Q16539 whole entry): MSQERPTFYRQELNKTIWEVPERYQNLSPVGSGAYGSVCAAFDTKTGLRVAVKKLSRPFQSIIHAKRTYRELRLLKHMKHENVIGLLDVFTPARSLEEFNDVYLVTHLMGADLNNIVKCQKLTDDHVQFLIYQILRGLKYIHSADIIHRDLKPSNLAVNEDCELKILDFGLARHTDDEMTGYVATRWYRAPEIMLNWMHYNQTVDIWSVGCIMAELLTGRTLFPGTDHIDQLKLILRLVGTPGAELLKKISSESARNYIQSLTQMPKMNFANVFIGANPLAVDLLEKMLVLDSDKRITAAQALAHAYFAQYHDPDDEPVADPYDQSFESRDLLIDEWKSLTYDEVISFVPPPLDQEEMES
smiles,measurement,setting,value
Cc1cc([C@@H](C)Nc2ccccc2C(=O)O)c2nc(N3CCOCC3)cc(=O)n2c1 [AZD-6482],% of control,[1],100%
Cc1cnc(Nc2ccc(F)cc2Cl)nc1-c1c[nH]c(C(=O)N[C@H](CO)c2cccc(Cl)c2)c1,% of inhibition,[2],2%
COc1cc(Nc2nc(C)cc(-c3cnn4nc(OC)ccc34)n2)cc(C(F)(F)F)c1,% of control,[3],90%
CC[C@@H]1[C@H](F)C(=O)N[C@@H]1COc1nccc2cc(C(N)=O)c(OC)cc12 [ZIMLOVISERTIB],% of inhibition,[4]; at 0.01 µM,-17%
same,% of inhibition,[4]; at 0.04 µM,-0.9%
same,% of inhibition,[4]; at 0.2 µM,-1.1%
same,% of inhibition,[4]; at 1 µM,20.9%
same,% of inhibition,[4]; at 5 µM,60%
CCN(CC)CCCCNc1ncc2cc(-c3cc(OC)cc(OC)c3)c(NC(=O)NC(C)(C)C)nc2n1,% of control,[5],100%
C=CC(=O)Nc1cccc(C(=O)Nc2ccc(Nc3cc(-c4[nH]c(SC)nc4C)ccn3)cc2)c1,% of control,[6]; at 1 µM,92%
same,% of control,[6]; at 5 µM,81%
CCC(=O)N1CCN(c2ccc(-n3c(=O)ccc4cnc5ccc(-c6cnc7ccccc7c6)cc5c43)cc2C(F)(F)F)CC1,% of control,[7],41%
Cc1ccc(-c2ccc3c(ccc4sc5c(c43)NC[C@@H](C)NC5=O)n2)cn1,% of inhibition,[8],11%
CN(C)CCOc1ccc(-c2nc(-c3ccncc3)c(-c3ccc4c(c3)CC/C4=N\O)[nH]2)cc1,% of control,[9],81%
N#Cc1cccc(-c2c[nH]c3ncnc(N4CCOCC4)c23)c1,% of inhibition,[10],-2%
same,% of control,[11],74%
O=C(NOC[C@H](O)CO)c1ccc(F)c(F)c1Nc1ccc(I)cc1F,% of control,[12],81%
